# The source made the active and inactive calls. The rule behind the calls is not given here.
# Columns and labels:
# Acetylcholinesterase = target: T1, Acetylcholinesterase (Mus musculus, UniProt P21836); assay: Inhibition of mouse AChE using acetylthiocholine iodide as substrate incubated for 20 mins by Ellman's method
# T1 sequence (P21836 whole entry): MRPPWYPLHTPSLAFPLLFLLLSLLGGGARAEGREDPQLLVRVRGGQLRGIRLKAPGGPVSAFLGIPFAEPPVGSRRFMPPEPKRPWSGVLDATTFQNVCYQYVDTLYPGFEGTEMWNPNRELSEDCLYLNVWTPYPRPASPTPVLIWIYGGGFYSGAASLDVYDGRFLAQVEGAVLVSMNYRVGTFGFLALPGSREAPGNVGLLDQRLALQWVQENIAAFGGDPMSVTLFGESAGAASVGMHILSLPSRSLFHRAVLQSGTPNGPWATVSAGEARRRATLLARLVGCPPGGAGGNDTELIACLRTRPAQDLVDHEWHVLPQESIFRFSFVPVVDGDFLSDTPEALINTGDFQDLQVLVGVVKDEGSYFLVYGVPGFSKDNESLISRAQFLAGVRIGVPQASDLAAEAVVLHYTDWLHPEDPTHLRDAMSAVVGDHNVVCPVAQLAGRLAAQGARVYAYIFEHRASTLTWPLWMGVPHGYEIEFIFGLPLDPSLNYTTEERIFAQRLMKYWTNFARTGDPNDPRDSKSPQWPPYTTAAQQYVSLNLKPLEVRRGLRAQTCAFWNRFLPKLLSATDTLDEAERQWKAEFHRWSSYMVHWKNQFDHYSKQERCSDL
# [1] = Half life in ICR mouse at 5 mg/kg, iv measured upto 24 hrs by UPLC-MS/MS analysis; type: ADME, organism-based; conditions: in vivo
# [2] = Half life in ICR mouse at 15 mg/kg, ip measured upto 24 hrs by UPLC-MS/MS analysis; type: ADME, organism-based; conditions: in vivo
# [3] = Tmax in ICR mouse at 5 mg/kg, iv measured upto 24 hrs by UPLC-MS/MS analysis; type: ADME, organism-based; conditions: in vivo
# [4] = Tmax in ICR mouse at 15 mg/kg, ip measured upto 24 hrs by UPLC-MS/MS analysis; type: ADME, organism-based; conditions: in vivo
# [5] = Cmax in ICR mouse at 5 mg/kg, iv measured upto 24 hrs by UPLC-MS/MS analysis; type: ADME, organism-based; set-up: route intravenous, dose 5 mg/kg, time <=24; conditions: in vivo
# [6] = Cmax in ICR mouse at 15 mg/kg, ip measured upto 24 hrs by UPLC-MS/MS analysis; type: ADME, organism-based; set-up: route intraperitoneal, dose 15 mg/kg, time <=24; conditions: in vivo
# [7] = AUClast in ICR mouse at 5 mg/kg, iv measured upto 24 hrs by UPLC-MS/MS analysis; type: ADME, organism-based; set-up: route intravenous, dose 5 mg/kg, time <=24; conditions: in vivo
# [8] = AUClast in ICR mouse at 15 mg/kg, ip measured upto 24 hrs by UPLC-MS/MS analysis; type: ADME, organism-based; set-up: route intraperitoneal, dose 15 mg/kg, time <=24; conditions: in vivo
# [9] = Volume of distribution in ICR mouse at 5 mg/kg, iv measured upto 24 hrs by UPLC-MS/MS analysis; type: ADME, organism-based; conditions: in vivo
# [10] = Volume of distribution in ICR mouse at 15 mg/kg, ip measured upto 24 hrs by UPLC-MS/MS analysis; type: ADME, organism-based; conditions: in vivo
# [11] = Apparent oral clearance in ICR mouse at 5 mg/kg measured upto 24 hrs by UPLC-MS/MS analysis; type: ADME, organism-based; conditions: in vivo
# [12] = Apparent oral clearance in ICR mouse at 15 mg/kg measured upto 24 hrs by UPLC-MS/MS analysis; type: ADME, organism-based; conditions: in vivo
# [13] = MRTlast in ICR mouse at 5 mg/kg, iv measured upto 24 hrs by UPLC-MS/MS analysis; type: ADME, organism-based; conditions: in vivo
# [14] = MRTlast in ICR mouse at 15 mg/kg, ip measured upto 24 hrs by UPLC-MS/MS analysis; type: ADME, organism-based; conditions: in vivo
# [15] = Bioavailability in ICR mouse at 15 mg/kg, ip measured upto 24 hrs by UPLC-MS/MS analysis; type: ADME, organism-based; conditions: in vivo
# [16] = Drug concentration in ICR mouse plasma at 15 mg/kg, ip measured after 0.5 hrs by UPLC-MS/MS analysis; type: ADME, organism-based
# [17] = Drug concentration in ICR mouse plasma at 15 mg/kg, ip measured after 1 hr by UPLC-MS/MS analysis; type: ADME, organism-based
# [18] = Drug concentration in ICR mouse plasma at 15 mg/kg, ip measured after 2 hrs by UPLC-MS/MS analysis; type: ADME, organism-based
# [19] = Drug concentration in ICR mouse plasma at 15 mg/kg, ip measured after 4 hrs by UPLC-MS/MS analysis; type: ADME, organism-based
# [20] = Drug concentration in ICR mouse brain at 15 mg/kg, ip measured after 0.5 hrs by UPLC-MS/MS analysis; type: ADME, organism-based; conditions: read-out: Drug uptake
# [21] = Drug concentration in ICR mouse brain at 15 mg/kg, ip measured after 1 hr by UPLC-MS/MS analysis; type: ADME, organism-based; conditions: read-out: Drug uptake
# [22] = Drug concentration in ICR mouse brain at 15 mg/kg, ip measured after 2 hrs by UPLC-MS/MS analysis; type: ADME, organism-based; conditions: read-out: Drug uptake
# [23] = Drug concentration in ICR mouse brain at 15 mg/kg, ip measured after 4 hrs by UPLC-MS/MS analysis; type: ADME, organism-based; conditions: read-out: Drug uptake
# [24] = Ratio of drug concentration in brain to plasma in ICR mouse at 15 mg/kg, ip measured after 0.5 hrs by UPLC-MS/MS analysis; type: ADME, organism-based
# [25] = Ratio of drug concentration in brain to plasma in ICR mouse at 15 mg/kg, ip measured after 1 hr by UPLC-MS/MS analysis; type: ADME, organism-based
# [26] = Ratio of drug concentration in brain to plasma in ICR mouse at 15 mg/kg, ip measured after 2 hrs by UPLC-MS/MS analysis; type: ADME, organism-based
# [27] = Ratio of drug concentration in brain to plasma in ICR mouse at 15 mg/kg, ip measured after 4 hrs by UPLC-MS/MS analysis; type: ADME, organism-based
# [28] = target: T2, Glycogen synthase kinase-3 beta (Homo sapiens, UniProt P49841); assay: Inhibition of GSK-3beta in glyceraldehyde-treated human SH-SY5Y cells assessed as reduction in phosphorylated Tau levels at S199 site measured after 24 hrs by ELISA
# Target sequence in this assay (P49841 whole entry, looked up): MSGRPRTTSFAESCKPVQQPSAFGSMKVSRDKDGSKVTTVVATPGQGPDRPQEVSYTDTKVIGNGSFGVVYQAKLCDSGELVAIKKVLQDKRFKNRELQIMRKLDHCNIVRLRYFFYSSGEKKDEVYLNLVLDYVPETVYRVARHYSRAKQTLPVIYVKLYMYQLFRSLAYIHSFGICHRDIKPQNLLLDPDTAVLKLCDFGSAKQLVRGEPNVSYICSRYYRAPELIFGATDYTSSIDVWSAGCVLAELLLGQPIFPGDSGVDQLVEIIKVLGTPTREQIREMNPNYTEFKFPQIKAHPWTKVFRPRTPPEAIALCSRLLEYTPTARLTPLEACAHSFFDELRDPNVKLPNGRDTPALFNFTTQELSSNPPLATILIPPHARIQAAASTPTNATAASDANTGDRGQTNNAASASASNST
# [29] = target: T2, Glycogen synthase kinase-3 beta; assay: Inhibition of GSK-3beta in glyceraldehyde-treated human SH-SY5Y cells assessed as reduction in phosphorylated Tau levels at S396 site measured after 24 hrs by ELISA
# Target sequence in this assay (P49841 whole entry, looked up): as above
# SH-SY5Y [30] = assay: Neuroprotective activity against glyceraldehyde-induced neurotoxicity in human SH-SY5Y cells assessed as increase in cell viability at 0.5 to 5 uM incubated for 24 hrs by MTT assay; type: functional, cell-based; conditions: dose 0.5-5 µM
# SH-SY5Y [31] = assay: Neuroprotective activity in human SH-SY5Y cells assessed as prevention of glyceraldehyde-induced neurite shortening at 0.5 to 5 uM incubated for 1 hr by confocal microsocopic analysis; type: functional, cell-based; conditions: dose 0.5-5 µM
# [32] = target: Glycogen synthase kinase-3 alpha (Homo sapiens) (UniProt P49840); assay: Inhibition of GSK-3alpha (unknown origin) at 1000 nM
# [33] = target: T2, Glycogen synthase kinase-3 beta; assay: Inhibition of GSK-3beta (unknown origin) at 1000 nM
# Target sequence in this assay (P49841 whole entry, looked up): as above
# [34] = Toxicity in ICR mouse assessed as emesis at 15 mg/kg, ip measured after 15 days; type: organism-based; conditions: in vivo, 360 h, time 15 day
# [35] = Toxicity in ICR mouse assessed as diarrhea at 15 mg/kg, ip measured after 15 days; type: organism-based; conditions: in vivo, 360 h, time 15 day
# [36] = Toxicity in ICR mouse assessed as swimming motility impairment at 15 mg/kg, ip measured after 15 days; type: organism-based; conditions: in vivo, 360 h, time 15 day
# [37] = target: T2, Glycogen synthase kinase-3 beta
# Target sequence in this assay (P49841 whole entry): as the sequence (P49841 whole entry, looked up) above
# Description: Inhibition of human recombinant GSK-3beta using prephosphorylated polypeptide as substrate incubated for 30 mins in presence of ATP by Kinase-Glo luminescence assay
# Chain of Glycogen synthase kinase-3 alpha (Homo sapiens) (P49840 2-483 limits assumed): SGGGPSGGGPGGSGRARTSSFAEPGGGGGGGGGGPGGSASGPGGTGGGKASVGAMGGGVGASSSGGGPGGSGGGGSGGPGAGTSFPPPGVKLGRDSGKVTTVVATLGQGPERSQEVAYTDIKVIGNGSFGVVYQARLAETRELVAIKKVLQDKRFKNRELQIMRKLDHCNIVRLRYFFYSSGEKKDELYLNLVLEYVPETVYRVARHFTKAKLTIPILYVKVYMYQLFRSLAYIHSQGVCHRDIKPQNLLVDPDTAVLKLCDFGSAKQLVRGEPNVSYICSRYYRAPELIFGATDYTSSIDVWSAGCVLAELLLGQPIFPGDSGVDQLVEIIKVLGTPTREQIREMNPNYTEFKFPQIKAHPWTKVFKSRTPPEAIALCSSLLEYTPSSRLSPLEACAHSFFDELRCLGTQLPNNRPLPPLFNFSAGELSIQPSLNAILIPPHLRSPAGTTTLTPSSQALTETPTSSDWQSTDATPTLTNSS
structure (smiles),measurement,setting,value
Cn1c(NCCCCCCCNc2c3c(nc4cc(Cl)ccc24)CCCC3)nc(-c2ccncc2F)cc1=O,IC50,Acetylcholinesterase,51.1 µM
same,half-life,[1],219 min
same,half-life,[2],69 min
same,Tmax,[3],1.98 min
same,Tmax,[4],8.34 min
same,Cmax,[5],2810 ng/mL
same,Cmax,[6],1870 ng/mL
same,AUC(0-t) at 24 h,[7],1560 ng·h/mL
same,AUC(0-t) at 24 h,[8],1660 ng·h/mL
same,Vd,[9],16.4 L/kg
same,Vd,[10],14.14 L/kg
same,CL/F,[11],0.0513 mL/min/kg
same,CL/F,[12],0.152 mL/min/kg
same,MRT last at 24 h,[13],183 min
same,MRT last at 24 h,[14],46.8 min
same,bioavailability,[15],35.3%
same,concentration at 0.5 h,[16],866 ng/mL
same,concentration at 1 h,[17],76.8 ng/mL
same,concentration at 2 h,[18],26.8 ng/mL
same,concentration at 4 h,[19],3.47 ng/mL
same,concentration at 0.5 h,[20],23.6 ng/g
same,concentration at 1 h,[21],11.1 ng/g
same,concentration at 2 h,[22],12.2 ng/g
same,concentration at 4 h,[23],5.99 ng/g
same,Kp at 0.5 h,[24],0.028
same,Kp at 1 h,[25],0.148
same,Kp at 2 h,[26],0.522
same,Kp at 4 h,[27],1.92
same,inhibition,[28],Dose-Dependent Effect
same,inhibition,[29],Dose-Dependent Effect
same,Activity,SH-SY5Y [30],Active
same,Activity,SH-SY5Y [31],Dose-Dependent Effect
same,inhibition,[32],Active
same,inhibition,[33],Active
same,Activity,[34],Non-Toxic
same,Activity,[35],Non-Toxic
same,Activity,[36],Non-Toxic
same,IC50,[37],89.3 µM
